# Test results from PubChem BioAssay AID2060617 (Molecular Pharmacology Branch, DTP, NCI, 2025).
# Test system: 485368-065-R4-J2-PDC spheroids with HUVEC/MSC, viability
# Experiment: Anticancer human tumor 485368-065-R4-J2-PDC patient-derived pancreatic carcinoma cell line growth inhibition [CLK]
# Conditions: for IC50: curve of first compound; for viability, T/C: stronger effect = lower value
# Excerpt: A high-throughput screen of multi-cell type tumor spheroids was designed to identify active combinations of […] and targeted small molecules. Complex spheroids include a stromal component modeled by human endothelial cells (HUVEC) and fibroblasts modeled by human mesenchymal stem cells (MSCs). The concentration ranges selected for each drug and investigational agent were based upon clinically achievable concentrations if the clinical Cmax of the agent was known.
# Compounds. The drugs and investigational agents: cirtuvivint (SM08502; NSC835563), CC-671 (NSC850746), vemurafenib (NSC761431), tapotoclax (NSC804041), sotorasib (NSC818433), adagrasib (NSC831453), MRTX-1133 (NSC836407), BAY2416964 (NSC825713), copanlisib (NSC816437), inavolisib (NSC800729), abemaciclib (NSC768073), osimertinib (NSC779217), entinostat (NSC756642), eltanexor (KPT-8602, NSC794443), venetoclax (NSC766270), ceralasertib (NSC777638), bortezomib (NSC756655), olaparib (NSC753686), talazoparib (NSC767125), alisertib (NSC759677), peposertib (NSC802822), gemcitabine (NSC613327), 5-fluorouracil (NSC19893), SN-38 (NSC673596), oxaliplatin (NSC266046), paclitaxel (NSC125973), and doxorubicin (NSC123127), were obtained from the National Cancer Institute (NCI) Developmental Therapeutics Program Chemical Repository. The FDA-approved anticancer drug set is available from the Developmental Therapeutics Program at https://dtp.cancer.gov/organization/dscb/obtaining/available plates.htm. […] The stock solutions were prepared in dimethyl sulfoxide (DMSO, Sigma-Aldrich, St. Louis, MO, cat. D2650), except for the platinum complexes which were prepared in saline (Quality Biological, Gaithersburg, MD, cat. 114-055-101), at 800-fold the tested concentration and stored at -70 degrees C prior to their use. All drugs and investigational agents were tested over a range starting from a high concentration at or near the clinical Cmax and decreasing in half-log increments. If the clinical Cmax for an agent had not been determined, the highest concentration tested was 10 microM.
# Cell Culture. All cells were maintained in an incubator at 37 degrees C and 5% CO2 with 95% humidity. The PDC lines were cultured according to standard operating procedures established by the NCI PDMR. Briefly, all PDCs were thawed and cultured in Matrigel-coated flasks prepared with a working solution of 1X Ham's F-12 nutrient mix, without supplementation (Invitrogen, Waltham, MA, cat. 11765054), 100 U/mL penicillin-streptomycin (Invitrogen, cat. 15140122), and 2.5% Matrigel (Corning Inc., Corning, NY, cat. 354248) for the first three passages. The 947758-054-R-J2-PDC line was cultured in 6B/Colon 1A media, which includes advanced DMEM/F-12 (Thermo Fisher Scientific, cat. 12634028), 10 mM HEPES (Thermo Fisher Scientific, cat. 15630080), 1X GlutaMAX supplement (Thermo Fisher Scientific, cat. 35050061), 0.1 mg/mL primocin (InvivoGen, cat. ant-pm-2), 10% defined fetal bovine serum, heat inactivated (HyClone Laboratories Inc., cat. SH30070.03HI), 1.25 mM N-Acetyl-L-cysteine (Sigma-Aldrich, cat. A9165), 10 mM nicotinamide (Sigma-Aldrich, cat. N0636), 1X B-27 supplement (Thermo Fisher Scientific, cat. 17504044), 1X N-2 supplement (Thermo Fisher Scientific, cat. 17502048), and 10 microM Y-27632 dihydrochloride (Tocris Bioscience, cat. 1254). The 876862-298-R-J1-PDC was cultured in 6E media, which includes all 6B/Colon 1A media components plus 50% L-WRN conditioned media (ATCC, cat. CRL-3276), 50 ng/mL recombinant human EGF recombinant protein (hEGF; Thermo Fisher Scientific, cat. PHG0311), 10 ng/mL recombinant human fibroblast growth factor 10 (hGFG-10; PeproTech, cat. 100-26), 1 ng/mL recombinant human fibroblast growth factor 2 (hFGF-2; PeproTech, cat. 100-18B), and 1 µM prostaglandin E2 (PGE2; Tocris, cat. 2296). The 227483-062-R1-J1-PDC line was cultured in Panc media, containing all 6E components except hFGF-2, with the addition of 500 nM SB-431542 (Selleckchem, cat. S1067) and 10 nM gastrin (Tocris, cat. 3006). […]
# 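Further: spheroids exposed to compounds for seven days.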
# 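Wherever viability, T/C is given: 100% = DMSO vehicle control wells.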
structure (smiles),measurement,setting,value
C=CC(=O)Nc1cc(Nc2nccc(-c3cn(C)c4ccccc34)n2)c(OC)cc1N(C)CCN(C)C + CNC(=O)c1ccc(Nc2nc(OC3CCCC3)c3c(-c4ccc5nc(C)oc5c4)c[nH]c3n2)c(OC)c1,IC50,second compound 0.0316 µM,> 300 nM
same,IC50,second compound 0.1 µM,> 300 nM
same,IC50,second compound 0.316 µM,> 300 nM
same,IC50,second compound 1 µM,> 300 nM
same,IC50,second compound 3.16 µM,> 300 nM
same,IC50,second compound 10 µM,> 300 nM
same,"viability, T/C","second compound 0.0316 µM, first compound 0.000949 µM",84.6%
same,"viability, T/C","second compound 0.0316 µM, first compound 0.003 µM",90%
same,"viability, T/C","second compound 0.0316 µM, first compound 0.00949 µM",88.8%
same,"viability, T/C","second compound 0.0316 µM, first compound 0.03 µM",93.4%
same,"viability, T/C","second compound 0.0316 µM, first compound 0.0949 µM",101%
same,"viability, T/C","second compound 0.0316 µM, first compound 0.3 µM",87.4%
same,"viability, T/C","second compound 0.1 µM, first compound 0.000949 µM",90.1%
same,"viability, T/C","second compound 0.1 µM, first compound 0.003 µM",89%
same,"viability, T/C","second compound 0.1 µM, first compound 0.00949 µM",95.6%
same,"viability, T/C","second compound 0.1 µM, first compound 0.03 µM",90.1%
same,"viability, T/C","second compound 0.1 µM, first compound 0.0949 µM",92.2%
same,"viability, T/C","second compound 0.1 µM, first compound 0.3 µM",98.4%
same,"viability, T/C","second compound 0.316 µM, first compound 0.000949 µM",82%
same,"viability, T/C","second compound 0.316 µM, first compound 0.003 µM",85.1%
same,"viability, T/C","second compound 0.316 µM, first compound 0.00949 µM",81.6%
same,"viability, T/C","second compound 0.316 µM, first compound 0.03 µM",79.5%
same,"viability, T/C","second compound 0.316 µM, first compound 0.0949 µM",83%
same,"viability, T/C","second compound 0.316 µM, first compound 0.3 µM",78%
same,"viability, T/C","second compound 1 µM, first compound 0.000949 µM",78.4%
same,"viability, T/C","second compound 1 µM, first compound 0.003 µM",72.6%
same,"viability, T/C","second compound 1 µM, first compound 0.00949 µM",81%
same,"viability, T/C","second compound 1 µM, first compound 0.03 µM",79.4%
same,"viability, T/C","second compound 1 µM, first compound 0.0949 µM",73.5%
same,"viability, T/C","second compound 1 µM, first compound 0.3 µM",70.8%
same,"viability, T/C","second compound 3.16 µM, first compound 0.000949 µM",69.4%
same,"viability, T/C","second compound 3.16 µM, first compound 0.003 µM",70.9%
same,"viability, T/C","second compound 3.16 µM, first compound 0.00949 µM",66.6%
same,"viability, T/C","second compound 3.16 µM, first compound 0.03 µM",68.4%
same,"viability, T/C","second compound 3.16 µM, first compound 0.0949 µM",66.8%
same,"viability, T/C","second compound 3.16 µM, first compound 0.3 µM",68.7%
same,"viability, T/C","second compound 10 µM, first compound 0.000949 µM",66.5%
same,"viability, T/C","second compound 10 µM, first compound 0.003 µM",67.6%
same,"viability, T/C","second compound 10 µM, first compound 0.00949 µM",70.1%
same,"viability, T/C","second compound 10 µM, first compound 0.03 µM",67.3%
same,"viability, T/C","second compound 10 µM, first compound 0.0949 µM",68.9%
same,"viability, T/C","second compound 10 µM, first compound 0.3 µM",58.6%
C#Cc1c(F)ccc2cc(O)cc(-c3ncc4c(N5CC6CCC(C5)N6)nc(OCC56CCCN5CC(F)C6)nc4c3F)c12 (centres undefined) + CN1CCN(c2cc(C(=O)Nc3cc4cc(-c5cnn(C)c5)ccc4cn3)ccn2)CC1,IC50,second compound 0.0316 µM,> 10000 nM
same,IC50,second compound 0.1 µM,> 10000 nM
same,IC50,second compound 0.316 µM,9710 nM
same,IC50,second compound 1 µM,< 31.6 nM
same,IC50,second compound 3.16 µM,< 31.6 nM
same,IC50,second compound 10 µM,< 31.6 nM
same,"viability, T/C","second compound 0.0316 µM, first compound 0.0316 µM",94.6%
same,"viability, T/C","second compound 0.0316 µM, first compound 0.1 µM",106%
same,"viability, T/C","second compound 0.0316 µM, first compound 0.316 µM",96.7%
same,"viability, T/C","second compound 0.0316 µM, first compound 1 µM",116%
same,"viability, T/C","second compound 0.0316 µM, first compound 3.16 µM",107%
same,"viability, T/C","second compound 0.0316 µM, first compound 10 µM",117%
same,"viability, T/C","second compound 0.1 µM, first compound 0.0316 µM",112%
same,"viability, T/C","second compound 0.1 µM, first compound 0.1 µM",115%
same,"viability, T/C","second compound 0.1 µM, first compound 0.316 µM",96.3%
same,"viability, T/C","second compound 0.1 µM, first compound 1 µM",111%
same,"viability, T/C","second compound 0.1 µM, first compound 3.16 µM",96%
same,"viability, T/C","second compound 0.1 µM, first compound 10 µM",75.8%
same,"viability, T/C","second compound 0.316 µM, first compound 0.0316 µM",90.3%
same,"viability, T/C","second compound 0.316 µM, first compound 0.1 µM",90.9%
same,"viability, T/C","second compound 0.316 µM, first compound 0.316 µM",82.5%
same,"viability, T/C","second compound 0.316 µM, first compound 1 µM",80.7%
same,"viability, T/C","second compound 0.316 µM, first compound 3.16 µM",68.6%
same,"viability, T/C","second compound 0.316 µM, first compound 10 µM",49.3%
same,"viability, T/C","second compound 1 µM, first compound 0.0316 µM",3.21%
same,"viability, T/C","second compound 1 µM, first compound 0.1 µM",2.21%
same,"viability, T/C","second compound 1 µM, first compound 0.316 µM",1.7%
same,"viability, T/C","second compound 1 µM, first compound 1 µM",2.24%
same,"viability, T/C","second compound 1 µM, first compound 3.16 µM",1.78%
same,"viability, T/C","second compound 1 µM, first compound 10 µM",1.33%
same,"viability, T/C","second compound 3.16 µM, first compound 0.0316 µM",1.18%
same,"viability, T/C","second compound 3.16 µM, first compound 0.1 µM",1.09%
same,"viability, T/C","second compound 3.16 µM, first compound 0.316 µM",1.08%
same,"viability, T/C","second compound 3.16 µM, first compound 1 µM",1.21%
same,"viability, T/C","second compound 3.16 µM, first compound 3.16 µM",1.29%
same,"viability, T/C","second compound 3.16 µM, first compound 10 µM",1.21%
same,"viability, T/C","second compound 10 µM, first compound 0.0316 µM",1.44%
same,"viability, T/C","second compound 10 µM, first compound 0.1 µM",2.45%
same,"viability, T/C","second compound 10 µM, first compound 0.316 µM",1.6%
same,"viability, T/C","second compound 10 µM, first compound 1 µM",1.34%
same,"viability, T/C","second compound 10 µM, first compound 3.16 µM",2.21%
same,"viability, T/C","second compound 10 µM, first compound 10 µM",1.87%
